As usually defined, the IC50 is the concentration at which inhibition is half-maximal. For orientation: inhibition means the relative decrease from the control value, in per cent. Higher therefore signals strong suppression.

Results on one compound are retold here after article PMC6207720, “Identification and antitumor activity of a novel inhibitor of the NIMA-related kinase NEK6” (Scientific Reports, 2018).

The structures appear in SMILES notation.

Assay [1] concerns the target T1, NEK6 (Homo sapiens, UniProt Q9HC98).
T1 construct: purchased Carna 05-130
The assay is described as follows: LANCE-Ultra NEK6 kinase assay. The class given is biochemical. The following applies: 100 µM ATP. The protocol: The twenty-five compounds resulting from virtual screening were firstly tested for the ability to inhibit the enzymatic activity of NEK6 at a single concentration of 30 µM, using LANCE technology. Quercetin, able to inhibit a broad panel of kinase, was used as positive control of inhibition[12],[30]. This initial screening allowed the identification of two compounds determining >70% NEK6 inhibition at 30 µM, i.e. compound 8 (6-hydroxy-4-methyl-2-oxo-5-[(5-phenyl (2-furyl)) methylene] pyridine-3-carbonitrile), and 21 (6-amino-2-phenyl-5,7,9-triazatetracyclo[8.7.0.0^3,^8 0^11,^16]heptadeca-1(10),3(8),6,11,13,15 hexaene-4,17-dione) (Fig. 4). […] The possible binding mode of compound 8 in the ATP-binding site of NEK6 as well as nonbonded interactions across the complex interface are shown in Fig. 6. Compound 8 may use its phenyl ring and furyl ring to form hydrophobic Pi-alkyl interactions with Ala72 (strand β3), Ala125 (hinge region) and Val59 (strand β2) of the ATP binding site (Fig. 6B). […] This is particulary relevant when considering that C–H···O hydrogen bonds play an important role in the ligand-binding process[33]–[35].
Compounds (i.e. 1 to 25) (Molport, Riga, LV-1011, Latvia) were dissolved in DMSO 100% as 10 mM stock and stored at −20 C. Activity of the compounds as NEK6 inhibitors was tested using LANCE NEK6 Ultra Kinase Assays protocol (U-TRF #25 technical note, PerkinElmer, Monza, MB). Compounds were first tested at 30 µM and incubated with 4 nM NEK6 (Carna, Chuo-ku, Kobe, Japan, # 05-130), 50 nM ULight-p70 S6K Peptide (PerkinElmer # TRF0126) and 100 μM ATP (Sigma-Aldrich, Saint Louis, U.S.A, # A2383) at room temperature. Kinase reactions were terminated after 90 minutes by the addition of EDTA and the signal was read with the Enspire plate reader (PerkinElmer) in TR-FRET mode (excitation at 320 nm and emission at 665 nm) after 60 minutes. Inhibition of NEK6 activity was calculated as percentage with respect to the control sample (100% of activity). Quercetin was used as positive control (Molport). […] For each compound the dose inhibiting 50% of NEK6 activity (IC50) was calculated using the GraphPad Prism 5.0 Software (San Diego, CA, USA).
For orientation: TR-FRET usually uses a lanthanide donor and a delayed reading to cut background.

Assay [2] concerns MDA-MB-231 (breast). Put plainly: Cell-based cytotoxicity assay (ATPlite), MDA-MB-231. The following applies: Homo sapiens, MDA-MB-231, 72 h, NA = not active (IC50 greater than 100 µM), read-out: IC50 Values (µM ± SEM). The text has this: (§1) The following human carcinoma cell lines were used for the study: MDA-MB-231 and MCF-7 (breast cancer; ATCC, Sesto San Giovanni, MI), PEO1 and COV318 (ovarian cancer; ECACC, Salisbury, UK and ATCC), HCT-15 and SW948 (colon cancer; Public Health England, Salisbury, UK and ATCC), NCI-H1975 and NCI-H1299, (lung cancer; ATCC). Cells were routinely tested free of mycoplasma (MycoAlert mycoplasma detection kit, LONZA, Rockland, ME, USA) and validated by STR (Short Tandem Repeat) DNA profiling (BMR Genomics srl, PD). Cells were grown following supplier indication, in a fully humidified atmosphere of 5% CO2/95% air. All the reagents were purchased from Sigma-Aldrich (St. Louis, MO), if not otherwise specified.
Background: Cellular ATP, detected with luciferase, serves as a proxy for viable cell number.

In assay [3] the test system is HCT15 (colon). The assay is described as follows: Cell-based cytotoxicity assay (ATPlite), HCT15. The following applies: Homo sapiens, HCT-15, HCT15, 72 h, NA = not active (IC50 greater than 100 µM), read-out: IC50 Values (µM ± SEM).
Excerpt: as §1

For assay [4], the system named is NCI-H1299 (lung). Put plainly: Cell-based cytotoxicity assay (ATPlite), NCI-H1299. The following applies: Homo sapiens, NCI-H1299, 72 h, NA = not active (IC50 greater than 100 µM), read-out: IC50 Values (µM ± SEM).
Excerpt: as §1

The test system of assay [5] is PEO1 cells. The assay is described as follows: Cell cycle analysis by flow cytometry. Type of assay: cell-based, human. The following applies: 48 hours, compound at its IC50 concentration. The procedure: In order to assess whether the ability of compound 8 to inhibit cell proliferation was accounted for by cell cycle-related changes in cell division, we analysed the progression of PEO1 cells through the cell cycle by flow cytometry at 24, 48 and 72 hours from treatment. PEO1 was selected since, in our experimental conditions, was the cell line showing the highest sensitivity to 8. […] The effect was already measurable at the first experimental time point (24 h) and remained stable over time (Fig. 8).
PEO1 cell cycle perturbations induced by compound 8 (used at its IC50 concentration) were evaluated by standard flow cytometry methods. Briefly, at the end of each incubation period adherent cells were trypsinized, harvested and washed with cold phosphate-buffered saline several times. Cells were then counted, gently fixed in 70% v/v cold ethanol, adding the ethanol dropwise to the cell pellet while vortexing, and incubated at −20 °C for no longer than 7 days. Prior to DNA staining, fixed cells were spun down and treated with RNase (100 µg/ml) for 10 mins to ensure that only DNA was stained. 1 × 10^6/ml cells were then stained with propidium iodide (PI, 0.5 mg/ml) and stored at +4 °C overnight. The day after, stained cells were subjected to flow cytometry. Flow cytometry analysis was performed using the 6-parameter flow cytometer (2 scatter and 4 fluorescence signals) EPICS-XL (Beckman Coulter). A minimum of 30,000 cells of interest were acquired for each sample at a low flow rate (<200 events/sec). Analysis of cell cycle perturbation was performed by the ModFit LT software (Verity software house). Pulse shape processing was used to exclude cell doublets from the analysis.
In general terms: Flow cytometry measures light scatter and fluorescence of single cells or particles in a stream.

T1 sequence (Q9HC98 whole entry): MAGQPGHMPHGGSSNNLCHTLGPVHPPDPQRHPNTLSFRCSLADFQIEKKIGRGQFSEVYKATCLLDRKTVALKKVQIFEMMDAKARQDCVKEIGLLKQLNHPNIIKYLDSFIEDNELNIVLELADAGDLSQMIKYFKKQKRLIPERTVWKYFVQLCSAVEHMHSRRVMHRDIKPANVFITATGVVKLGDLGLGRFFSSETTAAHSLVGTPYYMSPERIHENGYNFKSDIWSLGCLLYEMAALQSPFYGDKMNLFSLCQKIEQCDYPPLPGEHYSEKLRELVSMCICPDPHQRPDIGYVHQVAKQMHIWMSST

Consider `CC1=C(C#N)C(O)=NC(=O)/C1=C\c1ccc(-c2ccccc2)o1` [Compound 8, (5Z)-2-hydroxy-4-methyl-6-oxo-5-[(5-phenylfuran-2-yl)methylidene]-5,6-dihydropyridine-3-carbonitrile], for which the half-inhibitory concentration (IC50) amounted to 3.4 ± 1.2 µM in assay [1] (LANCE-Ultra, mean ± SEM of 4 independent experiments); 65 ± 15 µM in assay [2]; 98.5 ± 0.5 µM in assay [3]; 87.8 ± 10 µM in assay [4]. In addition, the inhibition at 30 µM in assay [1] (single concentration 30 µM, LANCE) is greater than 70%. In assay [5], the “percentage of PEO1 cells in G0/G1” value is 61%. Also, the “percentage of PEO1 cells in G2/M” value in assay [5] is 16%. For the same compound, in assay [5], the “percentage of PEO1 cells in S” value came out at 23%.
